Laboratory results: patent publication US10562891B2, “Quinazolinones as PARP14 inhibitors” (Ribon Therapeutics Inc., priority 2017, dated 2020)
pIC50: −log10 of the molar value.

Each molecule was assayed against catalytic domain of human PARP14 (Homo sapiens (Human), UniProt Q460N5) (assay: Enzymatic assay for inhibition of PARP14 (DELFIA, auto-modification with biotin-NAD)). Conditions: auto-modification of PARP14 by biotin-NAD, 50 nM PARP14, 3 μM biotin-NAD.
Sequence of catalytic domain of human PARP14 (Q460N5 1611-1801): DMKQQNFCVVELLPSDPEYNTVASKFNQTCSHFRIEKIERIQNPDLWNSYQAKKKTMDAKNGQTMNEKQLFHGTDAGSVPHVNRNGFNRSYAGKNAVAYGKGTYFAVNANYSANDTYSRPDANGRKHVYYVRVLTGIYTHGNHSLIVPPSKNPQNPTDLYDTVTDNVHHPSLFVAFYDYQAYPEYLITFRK
Type: biochemical
How it was run: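 His-TEV-tagged PARP14 catalytic domain (50 nM) preincubated with compound 30 min at 25 °C, then auto-modified with 3 μM biotin-NAD for 3 h at 25 °C in HEPES pH 8 buffer with DTT. IC50 from 4-parameter fit, rucaparib and DMSO as controls.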
In the case of `O=c1[nH]c(CSC2CCCCC2)nc2cc(NC3CCCC3)c(F)c(F)c12` [Example 310, 2-((Cyclohexylthio)methyl)-7-(cyclopentylamino)-5,6-difluoroquinazolin-4(3H)-one], the pIC50 was > 6.00. With `NC(=O)[C@H]1CC[C@H](SCc2nc3cc(OCC4CCC4)cc(F)c3c(=O)[nH]2)CC1` [Example 311, Trans-4-(((7-(cyclobutylmethoxy)-5-fluoro-4-oxo-3,4-dihydroquinazolin-2-yl)methyl)thio)cyclohexane-1-carboxamide] the pIC50 was 5.00 to 6.00. `O=c1[nH]c(CSC2CCOCC2)nc2cc(OCC3CCCN(CC(F)F)C3)cc(F)c12` (stereo not shown) [Example 312, 7-((1-(2,2-Difluoroethyl)piperidin-3-yl)methoxy)-5-fluoro-2-(((tetrahydro-2H-pyran-4-yl)thio)methyl)quinazolin-4(3H)-one] was tested, and the pIC50 was > 6.00. In the case of `O=c1[nH]c(CS[C@H]2CC[C@H](O)CC2)nc2cc(NC3CCCC3)c(F)c(F)c12` [Example 313, 7-(Cyclopentylamino)-5,6-difluoro-2-(((trans-4-hydroxycyclohexyl)thio)methyl)quinazolin-4(3H)-one], the pIC50 was > 6.00. `O=c1[nH]c(CS[C@H]2CC[C@H](O)CC2)nc2cc(OCC3CCCC3)cc(F)c12` [Example 314, 7-(Cyclopentylmethoxy)-5-fluoro-2-(((trans-4-hydroxycyclohexyl)thio)methyl)quinazolin-4(3H)-one] was tested, and the pIC50 was > 6.00. With `O=c1[nH]c(CSC2CCOCC2)nc2cc(OCC3CC3(F)F)cc(F)c12` (stereo not shown) [Example 315, 7-((2,2-Difluorocyclopropyl)methoxy)-5-fluoro-2-(((tetrahydro-2H-pyran-4-yl)thio)methyl)quinazolin-4(3H)-one] the pIC50 was > 6.00. In the case of `O=c1[nH]c(CSC2CCS(=O)(=O)CC2)nc2cc(NC3CCCC3)c(F)c(F)c12` [Example 316, 7-(Cyclopentylamino)-2-(((1,1-dioxidotetrahydro-2H-thiopyran-4-yl)thio)methyl)-5,6-difluoroquinazolin-4(3H)-one], the pIC50 was > 6.00. For `O=c1[nH]c(CSC2CCOCC2)nc2cc(OCC3CC(F)(F)C3)cc(F)c12` [Example 317, 7-((3,3-Difluorocyclobutyl)methoxy)-5-fluoro-2-(((tetrahydro-2H-pyran-4-yl)thio)methyl)quinazolin-4(3H)-one], the pIC50 was > 6.00. With `O=c1[nH]c(CS[C@H]2CC[C@H](O)CC2)nc2cc(OCC3CCCOC3)cc(F)c12` (stereo partly drawn) [Example 318, 5-Fluoro-2-(((trans-4-hydroxycyclohexyl)thio)methyl)-7-((tetrahydro-2H-pyran-3-yl)methoxy)quinazolin-4(3H)-one] the pIC50 was > 6.00. For `O=c1[nH]c(CSC2CCOCC2)nc2cc(OCC3CCCOC3)cc(F)c12` (stereo not shown) [Example 319, 5-Fluoro-7-((tetrahydro-2H-pyran-3-yl)methoxy)-2-(((tetrahydro-2H-pyran-4-yl)thio)methyl)quinazolin-4(3H)-one], the pIC50 was > 6.00. With `O=c1[nH]c(CSC2CCOCC2)nc2cc(OCC3CCCO3)cc(F)c12` (stereo not shown) [Example 320, 5-Fluoro-2-(((tetrahydro-2H-pyran-4-yl)thio)methyl)-7-((tetrahydrofuran-2-yl)methoxy)quinazolin-4(3H)-one] the pIC50 was > 6.00. For `O=c1[nH]c(CSC2CCOCC2)nc2cc(OC[C@H]3CCCO3)cc(F)c12` [Example 321a, (R)-5-Fluoro-2-(((tetrahydro-2H-pyran-4-yl)thio)methyl)-7-((tetrahydrofuran-2-yl)methoxy)quinazolin-4(3H)-one], the pIC50 was > 6.00. For `O=c1[nH]c(CSC2CCOCC2)nc2cc(OC[C@@H]3CCCO3)cc(F)c12` [Example 321b, (S)-5-Fluoro-2-(((tetrahydro-2H-pyran-4-yl)thio)methyl)-7-((tetrahydrofuran-2-yl)methoxy)quinazolin-4(3H)-one], the pIC50 was > 6.00. For `O=c1[nH]c(CSC2CCOCC2)nc2cc(NCC3CCOC3)c(F)c(F)c12` (stereo not shown) [Example 322, 5,6-Difluoro-2-(((tetrahydro-2H-pyran-4-yl)thio)methyl)-7-(((tetrahydrofuran-3-yl)methyl)amino)quinazolin-4(3H)-one], the pIC50 was > 6.00. `O=c1[nH]c(CSC2CCOCC2)nc2cc(NC[C@@H]3CCOC3)c(F)c(F)c12` [Example 323a, (S)-5,6-Difluoro-2-(((tetrahydro-2H-pyran-4-yl)thio)methyl)-7-(((tetrahydrofuran-3-yl)methyl)amino)quinazolin-4(3H)-one] was tested, and the pIC50 was > 6.00. For `O=c1[nH]c(CSC2CCOCC2)nc2cc(NC[C@H]3CCOC3)c(F)c(F)c12` [Example 323b, (R)-5,6-Difluoro-2-(((tetrahydro-2H-pyran-4-yl)thio)methyl)-7-(((tetrahydrofuran-3-yl)methyl)amino)quinazolin-4(3H)-one], the pIC50 was > 6.00. With `O=c1[nH]c(CS[C@H]2CC[C@H](O)CC2)nc2cc(OCC3CCOC3)cc(F)c12` (stereo partly drawn) [Example 324, 5-Fluoro-2-((((trans)-4-hydroxycyclohexyl)thio)methyl)-7-((tetrahydrofuran-3-yl)methoxy)quinazolin-4(3H)-one] the pIC50 was > 6.00. For `O=c1[nH]c(CS[C@H]2CC[C@H](O)CC2)nc2cc(OC[C@@H]3CCOC3)cc(F)c12` [Example 325a, 5-Fluoro-2-((((trans)-4-hydroxycyclohexyl)thio)methyl)-7-(((R)-tetrahydrofuran-3-yl)methoxy)quinazolin-4(3H)-one], the pIC50 was > 6.00. In the case of `O=c1[nH]c(CS[C@H]2CC[C@H](O)CC2)nc2cc(OC[C@H]3CCOC3)cc(F)c12` [Example 325b, 5-Fluoro-2-((((trans)-4-hydroxycyclohexyl)thio)methyl)-7-(((S)-tetrahydrofuran-3-yl)methoxy)quinazolin-4(3H)-one], the pIC50 was > 6.00. For `CN1CC[C@@H](COc2cc(F)c3c(=O)[nH]c(CSC4CCOCC4)nc3c2)[C@H](F)C1` [Example 327a, 5-Fluoro-7-(((3S,4S)-3-fluoro-1-methylpiperidin-4-yl)methoxy)-2-(((tetrahydro-2H-pyran-4-yl)thio)methyl)quinazolin-4(3H)-one], the pIC50 was > 6.00. In the case of `CO[C@H]1C[C@@H](Nc2cc3nc(CSC4CCOCC4)[nH]c(=O)c3c(F)c2F)C1` [Example 328, 5,6-Difluoro-7-(((cis)-3-methoxycyclobutyl)amino)-2-(((tetrahydro-2H-pyran-4-yl)thio)methyl)quinazolin-4(3H)-one], the pIC50 was > 6.00. In the case of `CC(=O)N[C@H]1CC[C@@H](SCc2nc3cc(OCC4CC4)cc(F)c3c(=O)[nH]2)CC1` [Example 329, N-((cis)-4-(((7-(Cyclopropylmethoxy)-5-fluoro-4-oxo-3,4-dihydroquinazolin-2-yl)methyl)thio)cyclohexyl)acetamide], the pIC50 was > 6.00. In the case of `CC(=O)N[C@H]1CC[C@H](SCc2nc3cc(OCC4CC4)cc(F)c3c(=O)[nH]2)CC1` [Example 330, N-((trans)-4-(((7-(Cyclopropylmethoxy)-5-fluoro-4-oxo-3,4-dihydroquinazolin-2-yl)methyl)thio)cyclohexyl)acetamide], the pIC50 was > 6.00. With `CCO[C@H]1C[C@@H](Nc2cc3nc(CSC4CCOCC4)[nH]c(=O)c3c(F)c2F)C1` [Example 331, 7-(((cis)-3-Ethoxycyclobutyl)amino)-5,6-difluoro-2-(((tetrahydro-2H-pyran-4-yl)thio)methyl)quinazolin-4(3H)-one] the pIC50 was > 6.00. For `C[C@]1(O)CC[C@H](SCc2nc3cc(OCC4CCOCC4)cc(F)c3c(=O)[nH]2)CC1` [Example 332, 5-Fluoro-2-((((cis)-4-hydroxy-4-methylcyclohexyl)thio)methyl)-7-((tetrahydro-2H-pyran-4-yl)methoxy)quinazolin-4(3H)-one], the pIC50 was > 6.00. `CN1CC[C@@H](COc2cc(F)c3c(=O)[nH]c(CS[C@H]4CC[C@H](O)CC4)nc3c2)[C@H](F)C1` [Example 335a, 5-fluoro-7-(((3S,4S)-3-fluoro-1-methylpiperidin-4-yl)methoxy)-2-((((trans)-4-hydroxycyclohexyl)thio)methyl)quinazolin-4(3H)-one] was tested, and the pIC50 was > 6.00. Molecule `NC[C@]1(F)CC[C@@H](SCc2nc3cc(OCC4CCC4)cc(F)c3c(=O)[nH]2)CC1` [Example 336] has a pIC50 of 5.00 to 6.00. With `O=c1[nH]c(CSC2CCOCC2)nc2cc(NCC3CC3)c(F)c(F)c12` [Example 337] the pIC50 was > 6.00. In the case of `O=c1[nH]c(CSC2CCOCC2)nc2cc(NCC3CCOCC3)c(F)c(F)c12` [Example 338], the pIC50 was > 6.00. With `O=c1[nH]c(CSC2CCS(=O)(=O)CC2)nc2cc(NCC3CCC3)c(F)c(F)c12` [Example 339] the pIC50 was > 6.00. `O=c1[nH]c(CS[C@H]2CC[C@H](O)CC2)nc2cc(OCC3CCOCC3)cc(F)c12` [Example 342] was tested, and the pIC50 was > 6.00. In the case of `O=c1[nH]c(CSC2CCOCC2)nc2cc(OCC3COC3)cc(F)c12` [Example 343], the pIC50 was > 6.00. In the case of `O=c1[nH]c(CSC2CCOCC2)nc2cc(OCC3COCCO3)cc(F)c12` (stereo not shown) [Example 344], the pIC50 was > 6.00. `O=c1[nH]c(CSC2CCOCC2)nc2cc(NC3CCCCC3(F)F)cc(F)c12` (stereo not shown) [Example 345] was tested, and the pIC50 was > 6.00. In the case of `CN1CCN([C@H]2CC[C@H](Nc3cc4nc(CSC5CCOCC5)[nH]c(=O)c4c(F)c3F)CC2)CC1` [Example 346], the pIC50 was > 6.00. For `CN1CCN([C@H]2CC[C@@H](Nc3cc4nc(CSC5CCOCC5)[nH]c(=O)c4c(F)c3F)CC2)CC1` [Example 347], the pIC50 was > 6.00. In the case of `O=c1[nH]c(CSC2CCOCC2)nc2cc(N[C@@H]3CCCOC3)c(F)c(F)c12` [Example 348], the pIC50 was > 6.00. For `CC(=O)N1CC[C@@H](Nc2cc3nc(CS[C@H]4CC[C@H](O)CC4)[nH]c(=O)c3c(F)c2F)C1` [Example 349], the pIC50 was > 6.00. For `O=c1[nH]c(CS[C@H]2CC[C@H](O)CC2)nc2cc(NC3CCCC3(F)F)cc(F)c12` (stereo partly shown) [Example 350], the pIC50 was > 6.00. With `O=c1[nH]c(CSC2CCOCC2)nc2cc(OCC3CCS(=O)(=O)CC3)cc(F)c12` [Example 351] the pIC50 was > 6.00. `O=c1[nH]c(CSC2CCOCC2)nc2cc(OCC3CCOCC3)cc(Cl)c12` [Example 353] was tested, and the pIC50 was > 6.00. With `O=c1[nH]c(CS[C@H]2CC[C@H](O)CC2)nc2cc(NC3CCN(CCC(F)(F)F)CC3)c(F)c(F)c12` [Example 354] the pIC50 was > 6.00. In the case of `CC1(C)CC(COc2cc(F)c3c(=O)[nH]c(CS[C@H]4CC[C@H](O)CC4)nc3c2)CO1` (stereo partly shown) [Example 355], the pIC50 was > 6.00.
